pIC50: −log10 of the molar value.
System: NF-κB
Test: NF-κB luciferase reporter assay in LPS-stimulated RAW 264.7 macrophages
Format: cell-based
Conditions: Mus musculus, RAW264.7; RAW 264.7 cells with 3× NFkB response element luciferase reporter; 2 hour pretreatment, 200 ng/ml LPS for 3 hours; 6 dose point titrations in triplicate
Procedure: RAW 264.7 cells stably expressing a 3× NFkB response elemement-drive luciferase reporter were seeded into 96 well plates in sera-free medium (Optimem) 18 hours prior to compound application. Compounds of the invention were prepared by first making 100 mM stock solutions in EtOH. Stock solutions were then diluted 1:100 in low LPS FBS (Gemini BenchMark 100-106), mixed vigorously and allowed to incubate at room temperature for 30 minutes. 1:2 serial dilutions were then made in FBS supplemented with 1% EtOH, mixed vigorously, and again allowed to incubate at room temperature for 30 minutes before adding to RAW 264.7 reporter cells (final concentrations: 10% FBS, 100 uM highest compound dilution, 0.1% EtOH) for a 2 hour pretreatment prior to stimulation with LPS. Cells were then stimulated with 200 ng/ml LPS or vehicle control for 3 hours in the presence of the compounds of the invention. A set of six vehicles was left unstimulated with LPS in order to measure the assay floor. […] After the 3 h incubation period with LPS, cell viability was measured by reading fluorescence (excitation 550 nm, emission 595 nm) with a Perkin Elmer Victor V plate reader. […] Luciferase activity was measured with the Perkin Elmer Victor V plate reader. NF-κB activity was expressed as a percent of the vehicle control wells (stimulated with LPS). […]

How did the pIC50 turn out when `CC/C=C\C/C=C\C/C=C\C/C=C\C/C=C\C/C=C\CCC(=O)NCCNC(=O)Oc1ccc2c(C(=O)c3ccc(OCCN4CCOCC4)cc3)c(-c3ccc(O)cc3)sc2c1` [III-4, 2-(4-hydroxyphenyl)-3-(4-(2-morpholinoethoxy)benzoyl)benzo[b]thiophen-6-yl 2-(4Z,7Z,10Z,13Z,16Z,19Z)-docosa-4,7,10,13,16,19-hexaenamidoethylcarbamate] was run?
Its pIC50 is about 4.30.

From patent US20110212958A1, “FATTY ACID RALOXIFENE DERIVATIVES AND THEIR USES” (CATABASIS PHARMACEUTICALS, INC., priority 2010, published 2011)
